Reference: the NIST ThermoML archive (doi:10.1021/acs.jced.6b00856)

Experiment: mn = molality of the nth substance listed, in mol/kg
Conditions: 101.3 kPa, Liquid; for viscosity: Capillary tube (Ostwald / Ubbelohde) method; for mass density: Pycnometric method

C1CNCCN1 [piperazine] + O
Conditions | mass density, 303.15 K [kg/m3] | mass density, 313.15 K [kg/m3] | mass density, 323.15 K [kg/m3] | viscosity, 303.15 K [mPa·s] | viscosity, 313.15 K [mPa·s] | viscosity, 323.15 K [mPa·s]
m1 = 0.66 | 997.55 | 994.45 | 989.89 | 0.987 | 0.789 | 0.641
m1 = 1.1 | 999.58 | 995.73 | 991.34 | 1.169 | 0.916 | 0.747
m1 = 1.7 | 1002.4 | 998.08 | 993.64 | 1.456 | 1.124 | 0.893
